# Measured values: article PMC10303384, “The Effect of Terbinafine and Its Ionic Salts on Certain Fungal Plant Pathogens” (Molecules, 2023)
# Several values for one entry are separate records, joined by “and”; a condition that tells them apart may be missing. Equal values may be shown once. Read-outs that look alike come from different tables or passages of the source.
# Columns and labels:
# Valsa malicola (V. mali) = test: In vitro fungicidal activity, mycelial (hyphae) growth inhibition on PDA; format: cell-based
# [1] = tested on: Botrytis cinerea (B. cinerea); test: as above; format: cell-based
# [2] = tested on: Pyricularia oryzae (P. oryzae); test: microbe, parasite or virus in culture; format: cell-based; settings: for Inhibition Rate at 50 mg/L (%) P. o: mean ± SD of three replicates
# [3] = tested on: Phomopsis capsici (P. capsica); test: In vitro fungicidal activity, mycelial (hyphae) growth inhibition on PDA; format: cell-based
# [4] = tested on: Alternaria solani (A. solani); test: as above; format: cell-based
# [5] = tested on: Rhizoctonia solani (R. solani); test: microbe, parasite or virus in culture; format: cell-based
# [6] = tested on: Fusarium graminearum (F. graminearum); test: microbe, parasite or virus in culture; format: cell-based; settings: for Inhibition Rate at 50 mg/L (%) F. g: mean ± SD of three replicates
# [7] = tested on: Pythium aphanidermatum (P. aphanidermatum); test: In vitro fungicidal activity, mycelial (hyphae) growth inhibition on PDA; format: cell-based
# [8] = Solubility classification in representative solvents (Vogel protocol); format: physicochemical; settings: 25 °C, test amount 0.1 g; for solubility: thermodynamic from solid
# Procedure: This investigation details how to determine the solubility of terbinafine and its salts, guided by the experimental protocol in Vogel’s Textbook of Practical Organic Chemistry. Based on the Snyder polarity index values of the representative solvents, each solvent was tested for its ability to dissolve the target analytes. The solubility data was classified into three categories based on the observed extent of dissolution. […] The experimental procedures were performed at 25 °C and under ambient pressure.
# [9] = Solubility of saturated solutions by HPLC at 25 °C; format: physicochemical; settings: for solubility at 15 min: thermodynamic from solid
# Text: The filtrate was then passed through a 0.22 μm nylon membrane filter and subjected to HPLC analysis. Based on Wang’s report about the chromatographic parameters, modifications to the mobile phase ratio were made. The replicability of the results was ensured by performing each measurement in triplicate.
# [10] = Surface tension of saturated aqueous solutions, Du Noüy ring method; settings: 25 °C
# Procedure: This method involved adjusting the stage positioning of the solvent container such that a platinum ring could be immersed below the liquid interface or pulled through the meniscus. […] The maximum force was recorded as the surface tension of the solvent. To ensure accuracy, the platinum ring was thoroughly cleaned between each measurement through rinsing with double-distilled water and wiping it dry. The surface tension determination was performed in quadruplicate.
# [11] = tested on: B. cinerea on cherry tomatoes; test: In vivo antifungal bioassay on cherry tomatoes; parameters: species or system Botrytis cinerea; settings: 20 mg/L; for Diameter of infection (cm) 4 days: 4 days after treatment; for Diameter of infection (cm) 7 days: 7 days after treatment
# [12] = Fusarium graminearum, F. graminearum
# [13] = read-out: EC50 (μmol/L), P. oryzae
# [14] = read-out: EC50 (μmol/L), F. graminearum
# [15] = DMSO, organic solvent or mixture, Snyder polarity index 6.5, read-out: Solubility in DMSO
# [16] = acetone, organic solvent or mixture, Snyder polarity index 5.1, read-out: Solubility in Acetone
# [17] = acetonitrile, organic solvent or mixture, Snyder polarity index 6.2, read-out: Solubility in Acetonitrile
# [18] = chloroform, organic solvent or mixture, Snyder polarity index 4.1, read-out: Solubility in Chloroform
# [19] = ethyl acetate, organic solvent or mixture, Snyder polarity index 4.3, read-out: Solubility in Ethyl acetate
# [20] = isopropanol, organic solvent or mixture, read-out: Solubility in Isopropanol
# [21] = methanol, organic solvent or mixture, Snyder polarity index 6.6, read-out: Solubility in Methanol
# [22] = n-hexane, organic solvent or mixture, Snyder polarity index 0.0, read-out: Solubility in n-Hexane
# [23] = toluene, organic solvent or mixture, Snyder polarity index 2.3, read-out: Solubility in Toluene
# [24] = water, Snyder polarity index 9.0, read-out: Solubility in Water
# [25] = isopropanol, organic solvent or mixture, Table S1, read-out: Solubility, Isopropanol
# [26] = n-hexane, organic solvent or mixture, Table S1, read-out: Solubility, n-Hexane
# [27] = water, Table S1, read-out: Solubility, Water
structure (smiles),measurement,setting,value
"CN(C/C=C/C#CC(C)(C)C)Cc1cccc2ccccc12.O=C(O)C1C(C(=O)O)[C@@]2(Cl)C(Cl)=C(Cl)[C@]1(Cl)C2(Cl)Cl [TIS 2, (E)-N,6,6-trimethyl-N-(naphthalen-1-ylmethyl)hept-2-en-4-yn-1-aminium (1S,4R)-3-carboxy-1,4,5,6,7,7-hexachlorobicyclo [2.2.1]hept-5-ene-2-carboxylate]",Inhibition Rate at 50 mg/L (%) V. m,Valsa malicola (V. mali); mean ± SD of three replicates,100 ± 0%
same,EC50 (mg/L),Valsa malicola (V. mali); V. mali,4.28 mg/L
same,EC50,"Valsa malicola (V. mali); V. mali, read-out: EC50 (μmol/L)",6.29 µmol/L
same,Inhibition Rate at 50 mg/L (%) B. c,[1]; mean ± SD of three replicates,100 ± 0%
same,EC50 (mg/L),[1]; B. cinerea,0.25 mg/L
same,EC50,"[1]; B. cinerea, read-out: EC50 (μmol/L)",0.37 µmol/L
same,Inhibition Rate at 50 mg/L (%) P. o,[2],96.09 ± 0.36%
same,EC50 (mg/L),[2]; P. oryzae,0.88 mg/L
same,EC50,"[2]; P. oryzae, read-out: EC50",1.29 µmol/L
same,Inhibition Rate at 50 mg/L (%) P. c,[3]; mean ± SD of three replicates,43.85 ± 1.61%
same,Inhibition Rate at 50 mg/L (%) A. s,[4]; mean ± SD of three replicates,98.8 ± 0%
same,EC50 (mg/L),[4]; A. solani,0.18 mg/L
same,EC50,"[4]; A. solani, read-out: EC50 (μmol/L)",0.27 µmol/L
same,EC50 (mg/L),[5],3.32 mg/L
same,Inhibition Rate at 50 mg/L (%) R. s,[5],80.75 ± 0.72%
same,EC50,[5]; read-out: EC50,4.88 µmol/L
same,Inhibition Rate at 50 mg/L (%) F. g,[6],100 ± 0%
same,EC50 (mg/L),[6]; F. graminearum,0.16 mg/L
same,EC50,"[6]; F. graminearum, read-out: EC50",0.24 µmol/L
same,Inhibition Rate at 50 mg/L (%) P. a,[7]; mean ± SD of three replicates,69.65 ± 1.7%
same,Solubility in n-Hexane,[8]; Snyder polarity index 0.0,"− (“−” means insoluble in a 3 mL solvent, poor solubility)"
same,Solubility in Toluene,[8]; Snyder polarity index 2.3,"− (“−” means insoluble in a 3 mL solvent, poor solubility)"
same,Solubility in Chloroform,[8]; Snyder polarity index 4.1,"− (“−” means insoluble in a 3 mL solvent, poor solubility)"
same,Solubility in Ethyl acetate,[8]; Snyder polarity index 4.3,"− (“−” means insoluble in a 3 mL solvent, poor solubility)"
same,Solubility in Isopropanol,[8]; Snyder polarity index 4.3,"− (“−” means insoluble in a 3 mL solvent, poor solubility)"
same,Solubility in Acetone,[8]; Snyder polarity index 5.1,"− (“−” means insoluble in a 3 mL solvent, poor solubility)"
same,Solubility in Acetonitrile,[8]; Snyder polarity index 6.2,"− (“−” means insoluble in a 3 mL solvent, poor solubility)"
same,Solubility in DMSO,[8]; Snyder polarity index 6.5,"+ (“+” means soluble in a 1 mL solvent, good solubility)"
same,Solubility in Methanol,[8]; Snyder polarity index 6.6,"− (“−” means insoluble in a 3 mL solvent, poor solubility)"
same,Solubility in Water,[8]; Snyder polarity index 9.0,"− (“−” means insoluble in a 3 mL solvent, poor solubility)"
same,"Solubility, Acetone",[9]; Table S1,8.23 µM
same,"Solubility, Acetonitrile",[9]; Table S1,155 nM
same,"Solubility, Chloroform",[9]; Table S1,1.39 µM
same,"Solubility, Ethyl acetate",[9]; Table S1,456 nM
same,"Solubility, Isopropanol",[9]; Table S1,70.3 nM
same,"Solubility, Methanol",[9]; Table S1,55.4 nM
same,"Solubility, Toluene",[9]; Table S1,366 nM
same,"Solubility, Water",[9]; Table S1,5.62 µM
same,"Solubility, n-Hexane",[9]; Table S1,22.1 nM
same,surface tension of the saturated aqueous solution,[10],62.78 mN·m^−1
"COC(=O)N(OC)c1ccccc1COc1ccn(-c2ccc(Cl)cc2)n1 [Pyraclostrobin, reference compound]",EC50,Valsa malicola (V. mali),0.79 µg/mL and 2.02 µM
same,EC50,[1]; Botrytis cinerea,0.12 µg/mL and 310 nM
same,EC50,"[2]; Pyricularia oryzae, P. oryzae",0.6 µg/mL and 1.54 µM
same,EC50,[4]; Alternaria solani,0.23 µg/mL and 590 nM
same,EC50,[5]; Rhizoctonia solani,0.07 µg/mL and 190 nM
same,EC50,[6]; [12],1.43 µg/mL and 3.68 µM
same,Diameter of infection (cm) 4 days,[11],0.71 cm
same,Diameter of infection (cm) 7 days,[11],0.92 cm
"CN(C/C=C/C#CC(C)(C)C)Cc1cccc2ccccc12.O=C(O)c1ccccc1O [TIS 1, (E)-N,6,6-trimethyl-N-(naphthalen-1-ylmethyl)hept-2-en-4-yn-1-aminium 2-hydroxybenzoate]",EC50,Valsa malicola (V. mali),2.24 µg/mL
same,Inhibition Rate at 50 mg/L (%) V. m,Valsa malicola (V. mali),100 ± 0%
same,EC50,Valsa malicola (V. mali); read-out: EC50 (μmol/L),5.21 µmol/L
same,Inhibition Rate at 50 mg/L (%) B. c,[1],100 ± 0%
same,EC50,[1]; Botrytis cinerea,0.14 µg/mL
same,EC50,[1]; read-out: EC50 (μmol/L),0.32 µmol/L
same,Inhibition Rate at 50 mg/L (%) P. o,[2],99.05 ± 0.21%
same,EC50,"[2]; Pyricularia oryzae, P. oryzae",0.47 µg/mL
same,EC50,[2]; [13],1.1 µmol/L
same,inhibition at 50 µg/mL,"[3]; Diaporthe capsici, 50 mg/L, read-out: Inhibition Rate at 50 mg/L (%) P. c",47 ± 1.18%
same,Inhibition Rate at 50 mg/L (%) A. s,[4],100 ± 0%
same,EC50,[4]; Alternaria solani,0.13 µg/mL
same,EC50,[4]; read-out: EC50 (μmol/L),0.3 µmol/L
same,Inhibition Rate at 50 mg/L (%) R. s,[5],84.79 ± 1.25%
same,EC50,[5]; Rhizoctonia solani,2.49 µg/mL
same,EC50,[5]; read-out: EC50 (μmol/L),5.81 µmol/L
same,Inhibition Rate at 50 mg/L (%) F. g,[6],100 ± 0%
same,EC50,[6]; [12],0.1 µg/mL
same,EC50,[6]; [14],0.23 µmol/L
same,inhibition at 50 µg/mL,"[7]; Pythium aphanidermatum, 50 mg/L, read-out: Inhibition Rate at 50 mg/L (%) P. a",74.61 ± 0.38%
same,solubility,[8]; [15],> 100 mg/mL
same,solubility,[8]; [16],> 100 mg/mL
same,solubility,[8]; [17],> 100 mg/mL
same,solubility,[8]; [18],> 100 mg/mL
same,solubility,[8]; [19],> 100 mg/mL
same,solubility,[8]; [20],< 33.3 mg/mL
same,solubility,[8]; [21],> 100 mg/mL
same,solubility,[8]; [22],< 33.3 mg/mL
same,solubility,[8]; [23],> 100 mg/mL
same,solubility,[8]; [24],< 33.3 mg/mL
same,solubility at 15 min,[9]; [25],5.18 µM
same,solubility at 15 min,[9]; [26],0.502 µM
same,solubility at 15 min,[9]; [27],284 µM
same,Diameter of infection (cm) 4 days,[11],0.78 cm
same,Diameter of infection (cm) 7 days,[11],1.10 cm
same,surface tension of the saturated aqueous solution,[10],58.33 mN·m^−1
"COC(=O)Nc1nc2ccccc2[nH]1 [Carbendazim, reference compound]",Diameter of infection (cm) 4 days,[11],0.85 cm
same,Diameter of infection (cm) 7 days,[11],0.92 cm
"CN(C/C=C/C#CC(C)(C)C)Cc1cccc2ccccc12.O=C(O)/C=C\C(=O)O [TIS 3, (E)-N,6,6-trimethyl-N-(naphthalen-1-ylmethyl)hept-2-en-4-yn-1-aminium (Z)-3-carboxyacrylate]",EC50,Valsa malicola (V. mali),2.03 µg/mL
same,Inhibition Rate at 50 mg/L (%) V. m,Valsa malicola (V. mali),100 ± 0%
same,EC50,Valsa malicola (V. mali); read-out: EC50 (μmol/L),4.98 µmol/L
same,Inhibition Rate at 50 mg/L (%) B. c,[1],100 ± 0%
same,EC50,[1]; Botrytis cinerea,0.13 µg/mL
same,Inhibition Rate at 50 mg/L (%) P. o,[2],99.29 ± 0%
same,EC50,"[2]; Pyricularia oryzae, P. oryzae",0.58 µg/mL
same,EC50,[2]; [13],1.41 µmol/L
same,Inhibition Rate at 50 mg/L (%) P. c,[3],33.16 ± 2.52%
same,Inhibition Rate at 50 mg/L (%) A. s,[4],100 ± 0%
same,EC50,[4]; Alternaria solani,0.15 µg/mL
same,EC50,[4]; read-out: EC50 (μmol/L),0.36 µmol/L
same,better activity than terbinafine,[5],24%
same,Inhibition Rate at 50 mg/L (%) R. s,[5],83.4 ± 0.35%
same,EC50,[5]; Rhizoctonia solani,1.84 µg/mL
same,EC50,[5]; read-out: EC50 (μmol/L),4.51 µmol/L
same,Inhibition Rate at 50 mg/L (%) F. g,[6],100 ± 0%
same,EC50,[6]; [12],0.1 µg/mL
same,EC50,[6]; [14],0.24 µmol/L
same,Inhibition Rate at 50 mg/L (%) P. a,[7],69.54 ± 0%
same,solubility,[8]; [15],> 100 mg/mL
same,solubility,[8]; [16],< 33.3 mg/mL
same,solubility,[8]; [17],< 33.3 mg/mL
same,solubility,[8]; [18],> 100 mg/mL
same,solubility,[8]; [19],< 33.3 mg/mL
same,solubility,[8]; [20],< 33.3 mg/mL
same,solubility,[8]; [21],> 100 mg/mL
same,solubility,[8]; [22],< 33.3 mg/mL
same,solubility,[8]; [23],< 33.3 mg/mL
same,solubility,[8]; [24],< 33.3 mg/mL
same,solubility at 15 min,"[9]; acetone, organic solvent or mixture, Table S1, read-out: Solubility, Acetone",3.76 µM
same,solubility at 15 min,"[9]; acetonitrile, organic solvent or mixture, Table S1, read-out: Solubility, Acetonitrile",1490 µM
same,solubility at 15 min,"[9]; ethyl acetate, organic solvent or mixture, Table S1, read-out: Solubility, Ethyl acetate",485 µM
same,solubility at 15 min,[9]; [25],3.06 µM
same,solubility at 15 min,[9]; [26],0.234 µM
same,solubility at 15 min,"[9]; toluene, organic solvent or mixture, Table S1, read-out: Solubility, Toluene",42.1 µM
same,solubility at 15 min,[9]; [27],616 µM
same,Diameter of infection (cm) 4 days,[11],0.82 cm
same,Diameter of infection (cm) 7 days,[11],1.02 cm
same,surface tension of the saturated aqueous solution,[10],61.48 mN·m^−1
